# Reference: patent US20220025036A1, “USE OF IL-1BETA BINDING ANTIBODIES” (NOVARTIS AG, priority 2018, published 2022)
# What was measured:
# hsCRP = test: Gevokizumab clinical hsCRP reduction in type 2 diabetes patients; format: in vivo, human; conditions: top dose 0.3 mg/kg (~20 mg) Q4W
# Source text: FIG. 12. Clinical data after gevokizumab treatment (panel a) and its extrapolation to higher doses (panels b, c, and d). Adjusted percent change from baseline in hsCRP in patients in a). The hsCRP exposure-response relationship is shown in b) for six different hsCRP base line concentrations.
# [1] = Gevokizumab clinical pharmacokinetics; format: in vivo, human; conditions: subcutaneous administration
# [2] = tested on: MDA-MB-231Luc2-TdTomato cells; test: Spontaneous human breast cancer metastasis to human bone implants in NOD SCID mice; format: in vivo, mouse; conditions: for size of bone metastases vs control group: FIG. 4a; for mice with metastasis detected in human bone implants: n=10/group, IL-1Ra 1 mg/kg daily, canakinumab 10 mg/kg s.c. every 14 days from day 7, control 7 out of 10; for tumor cells counted in whole blood: placebo 108 tumor cells/ml
# Protocol: FIG. 4. Pharmacological blockade of IL-1β inhibits spontaneous metastasis to human bone in vivo. Female NOD-SCID mice bearing two 0.5 cm^3 pieces of human femoral bone received intra-mammary injections of MDA-MB-231Luc2-TdTomato cells. […] All animals were culled 35 days following tumour cell injection. Effects on bone metastases (a) were assessed in vivo and immediately post-mortem by luciferase imaging and confirmed ex vivo on histological sections. Data are shown as numbers of photons per second emitted 2 minutes following sub-cutaneous injection of D-luciferin. Effects on numbers of tumour cells detected in the circulation are shown in (b). *=P<0.01, **=P<0.001, ***=P<0.0001.
# To model human breast cancer metastasis to human bone implants two human bone discs were implanted subcutaneously into 10-week old female NOD SCID mice (n=10/group) under isofluorane anaesthetic. Mice received an injection of 0.003 mg vetergesic and Septrin was added to the drinking water for 1 week following bone implantation. Mice were left for 4 weeks before injecting 1×10^5 MDA-MB-231 Luc2-TdTomato, MCF7 Luc2 or T47D Luc2 cells in 20% Martigel/79% PBS/1% […] into the two hind mammary fat pads. Primary tumor growth and development of metastases was monitored weekly using an IVIS […] system (Caliper Life Sciences) following sub-cutaneous injection of 30 mg/ml D-luciferin (Invitrogen). On termination of experiments mammary tumors, circulating tumor cells, serum and bone metastases were resected. RNA was processed for downstream analysis by real time PCR, and cell lysates were taken for protein analysis and whole tissue for histology as previously described (Nutter et al., 2014; Ottewell et al., 2014a).
# (§1) Tumor cells, serum, and bone were subsequently resected for downstream analysis.
# Whole blood was centrifuged at 10,000×g for 5 minutes and the serum removed for ELISA assays. The cell pellet was re-suspended in 5 ml of FSM lysis solution (Sigma-Aldrich, Pool, UK) to lyse red blood cells. Remaining cells were re-pelleted, washed 3× in PBS and re-suspended in a solution of PBS/10% FCS. Samples from 10 mice per group were pooled prior to isolation of TdTomato positive tumor cells using a MoFlow High performance cell sorter (Beckman Coulter, Cambridge UK) with the […] laser line from a Coherent I-90C tenable argon ion (Coherent, Santa Clara, Calif.). TdTomato fluorescence was detected by a 555LP dichroic long pass and a 580/30 nm band pass filter. Acquisition and analysis of cells was performed using Summit 4.3 software. Following sorting cells were immediately placed in RNA protect cell reagent (Ambion, Paisley, Renfrew, UK) and stored at −80° C. before RNA extraction. For counting numbers of circulating tumor cells, TdTomato fluorescence was detected using a 561 nm laser and an YL1-A filter (585/16 emission filter). Acquisition and analysis of cells was performed using Attune N×T software.
# bone vasculature = test: Bone microvasculature after IL-1 blockade in mice (CD34 staining, ELISA for endothelin 1 and VEGF); format: in vivo, mouse; conditions: for average length of CD34+ blood vessels in trabecular bone: IL-1Ra in BALB/c nude mice, canakinumab in C57BL/6 mice; for average length of CD34+ blood vessels in trabecular bone / endothelin 1 concentration (ELISA) vs control: p<0.01; for VEGF concentration (ELISA) vs control / endothelin 1 concentration (ELISA) vs control: bone marrow; for VEGF concentration (ELISA) vs control: IL-1R antagonist p<0.01, canakinumab p<0.001
# Protocol: FIG. 7. IL-1β in the bone microenvironment stimulates expansion of the bone metastatic niche. Effects of adding 40 pg/ml or 5 ng/ml recombinant IL-1β to MDA-MB-231 or T47D breast cancer cells is shown in (a) and effects on adding 20 pg/ml, 40 pg/ml or 5 ng/ml IL-1B on proliferation of HS5, bone marrow, or OB1, osteoblasts, are shown in b) and c) respectively. (d) IL-1 driven alterations to the bone vasculature was measured following CD34 staining in the trabecular region of the tibiae from 10-12-week old female IL-1R1 knockout mice. […] Data are shown as mean+/−SEM, *=P<0.01, **=P<0.001, ***=P<0.0001.
# FIG. 8. Suppression of IL-1 signalling affects bone integrity and vasculature. […] Data shown are mean+/−SEM, *=P<0.01, **=P<0.001, ***=P<0.0001 compared with control.
# as §1
# mouse IL-1β = mouse IL-1β (Mus musculus, UniProt P10749); test: Cross-reactivity with mouse IL-1β; format: binding
# Chain of mouse IL-1β (P10749 118-269): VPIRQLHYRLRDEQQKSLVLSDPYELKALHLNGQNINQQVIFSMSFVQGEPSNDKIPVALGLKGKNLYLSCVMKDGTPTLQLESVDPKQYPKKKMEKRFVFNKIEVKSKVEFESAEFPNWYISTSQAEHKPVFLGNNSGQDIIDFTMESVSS
# [3] = tested on: high-sensitivity C-reactive protein (hsCRP); conditions: 50, 150, 300 mg s.c. every 3 months, dose-dependent; median follow-up 3.7 years; cited from earlier work
# interleukin 6 = conditions: 50, 150, 300 mg s.c. every 3 months, dose-dependent; median follow-up 3.7 years; cited from earlier work
# LL2 = test: Anti-IL-1β in combination with docetaxel in aggressive lung model (LL2); format: in vivo, mouse; conditions: LL2, FIG. 15A
# 4T1 tumors [4] = test: 4T1 tumors treated with 01BSUR and docetaxel, tumor burden; format: in vivo, mouse; conditions: 4T1 s.c., treated days 8 and 15 post implant
# Protocol: FIG. 16. Mice were implanted with 4T1 cells sc and treated with the indicated treatments on days 8 and 15 post tumor implant. There were 10 mice in each group.
# (§2) Female Balb/c mice with 4T1 tumors implanted subcutaneously (s.c.) on the right flank were treated 8 and 15 days post-tumor implant initiating when the tumors reached about 100 mm^3 with the isotype antibody, docetaxel, 01BSUR, or a combination of docetaxel and 01BSUR. […] 5 days after the first dose, tumors were harvested and analyzed for changes to the infiltrating immune cell populations. This was done again at the end point of the study, 4 days after the second dose.
# 4T1 tumors [5] = test: TIL analysis of 4T1 tumors after docetaxel and 01BSUR; format: in vivo, mouse
# Protocol: as §2
# CML LSC = conditions: recombinant IL-1RA; cited from earlier work
compound,measurement,setting,value
"gevokizumab: high-affinity, humanized monoclonal antibody of the IgG2 isotype to interleukin-1β (SEQ ID NO:19 and 20)",reduction of hsCRP,hsCRP,up to 45%
same,Bioavailability,[1],about 56%
"canakinumab: high-affinity, fully human monoclonal antibody of the IgG1/k to interleukin-1β (SEQ ID NO:17 and 18)",size of bone metastases vs control group,[2],smaller
same,mice with metastasis detected in human bone implants,[2],1 out of 10
same,tumor cells counted in whole blood,[2],3 tumor cells/ml
same,average length of CD34+ blood vessels in trabecular bone,bone vasculature,reduced
same,VEGF concentration (ELISA) vs control,bone vasculature,reduced concentrations
same,endothelin 1 concentration (ELISA) vs control,bone vasculature,reduced concentrations
same,cross-reactivity with mouse IL-1β,mouse IL-1β,does not cross-react
same,reductions in concentrations of hsCRP compared with placebo,[3],26-41%
same,reductions in concentrations of interleukin 6 compared with placebo,interleukin 6,25-43%
CC(=O)O[C@@]12CO[C@@H]1C[C@H](O)[C@@]1(C)C(=O)[C@H](O)C3=C(C)[C@@H](OC(=O)[C@H](O)[C@@H](NC(=O)OC(C)(C)C)c4ccccc4)C[C@@](O)([C@@H](OC(=O)c4ccccc4)[C@H]21)C3(C)C [docetaxel],efficacy (tumor growth),LL2,modest efficacy
same,tumor growth vs vehicle/isotype control,4T1 tumors [4],enhanced
same,CD4+ and CD8+ T cells expressing TIM-3 vs control,4T1 tumors [5]; 4 days after a second dose,no change
same,granulocytic MDSC in 4T1 tumors,4T1 tumors [5]; 5 days after a single dose,decrease
same,monocytes in 4T1 tumors vs vehicle/isotype,4T1 tumors [5]; 5 days after a single dose,decrease
same,monocytic MDSC in 4T1 tumors,4T1 tumors [5]; 5 days after a single dose,decrease
same,neutrophils in 4T1 tumors,4T1 tumors [5]; 5 days after a single dose,decrease
IL-1Ra: recombinant IL-1 receptor antagonist (Anakinra),size of bone metastases vs control group,[2],smaller
same,mice with metastasis detected in human bone implants,[2],4 out of 10
same,tumor cells counted in whole blood,[2],3 tumor cells/ml
same,average length of CD34+ blood vessels in trabecular bone,bone vasculature,reduced
same,VEGF concentration (ELISA) vs control,bone vasculature,reduced concentrations
same,endothelin 1 concentration (ELISA) vs control,bone vasculature,reduced concentrations
same,growth of CML LSC,CML LSC,inhibited growth
